Data: US20250042925A1, “Improved Compositions and Methods for Targeting Mitochondria in Cancer Cells” (The Medical College of Wisconsin, Inc., priority 2021, published 2025)

Columns and labels:
HPSC cells = experiment: TMRE retention (mitochondrial depolarization) by flow cytometry in HPSC; assay type: cell-based, human; conditions: HPSC cell line, 1 hour treatment
Procedure: (§1) AsPC-1 and HPSC cells were serum-starved overnight, loaded with tetramethylrhodamine ethyl ester (TMRE), and treated for 1 hour with the indicated concentrations of MMe or pCF3-MMe or, as the vehicle control, DMSO. Mitochondrial TMRE retention was measured by flow cytometry. Representative histograms of n=3 of TMRE fluorescence in AsPC-1 (FIG. 4A) and HPSC (FIG. 4B) in response to treatment. […] Total cellular ATP levels were analyzed using a luminescent ATP detection assay of KPC1242 cells treated with MMe (0.7 μM) or pCF3-MMe (3 μM), and changes in ATP levels were assayed (FIG. 4E). Representatives immunoblot analyses of phosphorylated and total AMPK levels (FIG. 4F) and densitometric quantification (FIG. 4G) in KPC1242 cells treated with MMe (0.7 μM) or pCF3-MMe (3 μM). […] Values are mean±SD from 3 biological replicates. Statistical differences in a, c, and e were determined using Student's t-test (*, p<0.05; **, p<0.01; ***, p<0.001, ns: not significant).
(§2) TPP-conjugated compounds are known to effectively target the mitochondria of cancer cells. Thus, the efficacy of pCF3-MMe to effectively target the mitochondria of cancer cells was tested and compared to normal cells using tetramethylrhodamine ethyl ester perchlorate (TMRE), a cell-permeant, positively-charged dye that accumulates in active mitochondria, and is released into the cytosol upon mitochondrial damage. […]

C57BL/6J mice = experiment: Tolerability in non-tumor-bearing mice; assay type: in vivo; conditions: for tolerability of repeated injection: daily for 5 consecutive days, 25 μg/mouse to 1 mg/mouse
Procedure: (§3) FIGS. 6A-6I show pCF3-MMe inhibits tumor growth with enhanced biosafety relative to MMe. C57BL/6J mice were treated with 1 mg MMe, 1 mg pCF3-MMe, 1 mg MMe, 250 μg MMe, 100 μg MMe, 50 μg MMe, or 25 μg MMe for 6 hours (FIG. 6A) or 5 days (FIG. 6D). Kaplan-Meier survival curve of mice treated for 6 hours (FIG. 6B) or 5 days […], n=3-5. Numbers of mice surviving over time after a single injection (FIG. 6C) or 5 repeated doses (FIG. 6F). Significance was determined using a Mantel-Cox test (*, p<0.05; **, p<0.01). KPC1242 murine pancreatic cancer engrafted mice were treated with 1 mg pCF3-MMe or vehicle 5 days on and 2 days off (FIG. 6G). Tumors isolated from vehicle and treated mice were pictured (FIG. 6H). Tumor volume was measured ex vivo from vehicle and pCF3-MMe-treated mice (FIG. 6I). Values are mean±SD. Significant differences were determined by Student's t-test (*, p<0.05).
With the ability to detect pCF3-MMe in vitro and in vivo in hand, along with anti-tumor properties and decreased toxicity towards non-transformed cells in culture, we next compared the tolerability of pCF3-MMe in mice. Non-tumor-bearing mice received an intraperitoneal injection with decreasing amounts (1 mg, 250 μg, 100 μg, 50 μg, or 25 μg) of unsubstituted MMe or pCF3-MMe. […] […].
Given the strong safety shown from a single injection, further studies were conducted to determine if mice tolerated repeated injection using our published treatment schedule by injecting non-tumor-bearing mice daily for 5 consecutive days with doses ranging from as little as 25 μg/mouse to as much as 1 mg/mouse […] (FIG. 6D). […] Since 1 mg/mouse pCF3-MMe was well tolerated in tumor-free animals, further studies were conducted to test if pCF3-MMe could inhibit tumor growth in vivo. Mice were implanted with murine cancer cells and injected 17 days after engraftment with 1 mg pCF3-MMe (FIG. 6G). […] Taken together, trifluoromethylation of TPP^+ improves the reproducible detection, quantitative measurement, and safety profile of TPP^+-conjugated compounds while retaining potent anti-tumor effects in vivo.

AsPC-1 cells = experiment: TMRE retention (mitochondrial depolarization) by flow cytometry in AsPC-1; assay type: cell-based, human; conditions: AsPC-1, 1 hour treatment
Procedure: as §1, §2

[1] = test system: pancreatic, breast, and colon cancers; conditions: cited from earlier work
[2] = test system: KPC1242 murine pancreatic cancer; experiment: Tumor growth in KPC1242 engrafted mice; assay type: in vivo; conditions: 1 mg pCF3-MMe, 5 days on and 2 days off, from 17 days after engraftment
Procedure: as §3, with “Tumors isolated from vehicle and treated mice were pictured (FIG. 6H).” left out, “Values are mean±SD.” left out
Given the strong safety shown from a single injection, further studies were conducted to determine if mice tolerated repeated injection using our published treatment schedule by injecting non-tumor-bearing mice daily for 5 consecutive days with doses ranging from as little as 25 μg/mouse to as much as 1 mg/mouse 20 (FIG. 6D). […] Taken together, trifluoromethylation of TPP^+ improves the reproducible detection, quantitative measurement, and safety profile of TPP^+-conjugated compounds while retaining potent anti-tumor effects in vivo. […]

| Compound | TMRE accumulation within the mitochondria (HPSC cells) | tolerability of repeated injection (C57BL/6J mice) | tolerability after a single injection (C57BL/6J mice; single intraperitoneal injection, MMe 250 μg or 1 mg, metformin 1 mg) | TMRE accumulation within the mitochondria (AsPC-1 cells) | efficacy compared to metformin [1] | mice surviving (C57BL/6J mice; single intraperitoneal injection of 1 mg) [%] | tumor size and volume [2] |
| --- | --- | --- | --- | --- | --- | --- | --- |
| N=C(N)NC(=N)NCCCCCCCCCC[P+](c1ccccc1)(c1ccccc1)c1ccccc1.[Br-] [MMe, 10-[(carbamimidamidomethanimidoyl)amino]decyl-triphenylphosphonium bromide, reference compound] | did not affect TMRE accumulation | succumbed to 4-fold lower doses | significant and rapid mortality | significantly reduced TMRE accumulation | 100-1000 fold | – | – |
| N=C(N)NC(=N)NCCCCCCCCCC[P+](c1ccc(C(F)(F)F)cc1)(c1ccc(C(F)(F)F)cc1)c1ccc(C(F)(F)F)cc1.[Br-] [pCF3-MMe, (10-(3-carbamimidoylguanidino)decyl)tris(4-(trifluoromethyl)phenyl)phosphonium bromide] | did not affect TMRE accumulation | tolerated a 1 mg dose | – | significantly reduced TMRE accumulation | – | 100 | significantly decreased tumor size and volume |
